# Numbers after ± are expanded uncertainties.
# How the values were obtained:
# [1] = refractive index (Na D-line) (dimensionless); conditions: 293.15 K; 101.33 kPa; Liquid; Standard Abbe refractometry
# [2] = Liquid; for mass density: 293.15 K, 101.33 kPa, Vibrating tube method
# [3] = Boiling temperature at pressure P; conditions: Liquid, Ebulliometric method (Recirculating still)
Compound,refractive index [1],mass density [2] [kg/m3],"vapor or sublimation pressure ([2]; 338.15 K, Ebullio) [kPa]","vapor or sublimation pressure ([2]; 353.15 K, Ebullio) [kPa]","vapor or sublimation pressure ([2]; 368.15 K, Ebullio) [kPa]",Boiling temperature at pressure P ([3]; 39.89 kPa) [°C],Boiling temperature at pressure P ([3]; 69.89 kPa) [°C],Boiling temperature at pressure P ([3]; 14.9 kPa) [°C],Boiling temperature at pressure P ([3]; 29.9 kPa) [°C],Boiling temperature at pressure P ([3]; 59.89 kPa) [°C],Boiling temperature at pressure P ([3]; 79.88 kPa) [°C],further results
CC(=O)CC(C)C [4-methylpentan-2-one],1.39586 ± 0.00085,800.3 ± 1,17.57 ± 1.4,31.41 ± 2.4,54.04 ± 4.2,86.5 ± 0.2,103.21 ± 0.19,,,,,"vapor or sublimation pressure ([2]; 323.15 K, Ebullio): 9.22 ± 0.72 kPa; Boiling temperature at pressure P ([3]; 9.22 kPa): 49.67 ± 0.38 °C; Boiling temperature at pressure P ([3]; 9.9 kPa): 51.26 ± 0.38 °C; Boiling temperature at pressure P ([3]; 17.52 kPa): 64.70 ± 0.27 °C; Boiling temperature at pressure P ([3]; 18.41 kPa): 65.96 ± 0.27 °C; Boiling temperature at pressure P ([3]; 31.36 kPa): 79.73 ± 0.22 °C; Boiling temperature at pressure P ([3]; 32.13 kPa): 80.39 ± 0.22 °C; Boiling temperature at pressure P ([3]; 53.99 kPa): 95.31 ± 0.2 °C"
CCCO [propan-1-ol],1.38512 ± 0.00086,803.66 ± 1,25.92 ± 2,51 ± 4,93.92 ± 7.3,74.30 ± 0.2,87.44 ± 0.19,53.83 ± 0.23,67.97 ± 0.2,83.71 ± 0.19,90.76 ± 0.19,Boiling temperature at pressure P ([3]; 25.89 kPa): 64.94 ± 0.23 °C; Boiling temperature at pressure P ([3]; 51.21 kPa): 79.99 ± 0.19 °C; Boiling temperature at pressure P ([3]; 93.89 kPa): 94.87 ± 0.19 °C; Boiling temperature at pressure P ([3]; 99.88 kPa): 96.46 ± 0.18 °C
CC(C)O [propan-2-ol],1.37718 ± 0.00086,784.99 ± 1,,,,60.83 ± 0.2,73.30 ± 0.19,41.28 ± 0.23,54.82 ± 0.2,69.8 ± 0.19,76.49 ± 0.19,vapor or sublimation pressure ([2]; 323.15 K): 23.48 ± 1.8 kPa; vapor or sublimation pressure ([2]; 338.15 K): 48.45 ± 3.8 kPa; vapor or sublimation pressure ([2]; 353.15 K): 92.48 ± 7.2 kPa; Boiling temperature at pressure P ([3]; 23.43 kPa): 49.88 ± 0.22 °C; Boiling temperature at pressure P ([3]; 48.34 kPa): 64.99 ± 0.19 °C; Boiling temperature at pressure P ([3]; 92.4 kPa): 79.99 ± 0.18 °C; Boiling temperature at pressure P ([3]; 98.88 kPa): 81.67 ± 0.18 °C

# — the NIST ThermoML archive (doi:10.1021/acs.jced.7b00026)
